These results are taken from patent publication US6117866A, “Bicyclic fibrinogen antagonists” (SmithKline Beecham Corporation, priority 1996, dated 2000).

pIC50: −log10 of the molar value.

The test deals with human platelets. Put plainly: Inhibition of Platelet Aggregation (human platelets stimulated with ADP). In kind it is cell-based. The note with it: in vitro.

The pIC50 is the IC50 on a negative log10 scale, so that one unit is a factor of ten. High values mean a small IC50, low ones a large IC50. In the case of `O=C(O)CC1Nc2cc(C(=O)Nc3ccc4c(c3)CNCC4)ccc2CN(CCc2ccccc2)C1=O` (racemic) [Example 4, (R,S)-8-[[(1,2,3,4-tetrahydro-7-isoquinolinyl]amino]carbonyl]-2,3,4,5-tetrahydro-3-oxo-4-(2-phenylethyl)-1H-1,4-benzodiazepine-2-acetic acid], the pIC50 is roughly 4.12.

On to `CN(CCC1CCNCC1)C(=O)c1ccc2c(c1)CC(CCC(=O)O)C(=O)N(CCc1ccccc1)C2` (racemic) [Example 22, (R,S)-2,3,4,5-tetrahydro-3-oxo-2-(2-phenylethyl)-7-[[[2-(4-piperidinyl)ethyl]-methylamino]carbonyl]-1H-2-benzazepine-4-propionic acid], for which the negative-log IC50 (pIC50) was 4.96 to 6.70.

Take `CN1Cc2cc(C(=O)N3CCC(C4CCNCC4)CC3)ccc2N[C@H](CC(=O)O)C1=O` [Example 26, (R)-7-[(4,4'-bipiperidin-1-yl)carbonyl]-2,3,4,5-tetrahydro-4-methyl-3-oxo-1H-1,4-benzodiazepine-2-acetic acid]: the pIC50 was 4.96 to 6.70.

On to `O=C(O)CC1Nc2ccc(C(=O)Nc3ccc4c(c3)CNCC4)cc2CN(CCc2ccccc2)C1=O` (racemic) [Example 7, (R,S)-7-[[(1,2,3,4-tetrahydro-7-isoquinolinyl]amino]carbonyl]-2,3,4,5-tetrahydro-3-oxo-4-(2-phenylethyl)-1H-1,4-benzodiazepine-2-acetic acid], for which the pIC50 was 4.96 to 6.70.

`O=C(O)CC1Nc2ccc(C(=O)N3CCC(C4CCNCC4)CC3)cc2CN(CCc2ccccc2)C1=O` (single isomer, unassigned; (+)) [Example 23, (+)-7-[(4,4'-bipiperidin-1-yl)carbonyl]-2,3,4,5-tetrahydro-3-oxo-4-(phenylethyl)-1H-1,4-benzodiazepine-2-acetic acid] had a pIC50 of 4.96 to 6.70.
